Where two headings read alike, the source gives them in different places.
Columns and labels:
[1] = test system: T-Rex 293 cell line SC3 cells having increased expression of androgen receptor protein; test: Cellular growth inhibition, T-Rex 293 SC3 cells with increased androgen receptor expression (doxycycline), CellTiter-Glo; assay type: cell-based; conditions: T-Rex 293 SC3 cells with increased androgen receptor expression (exposed to 10 ng/mL doxycycline), 72 hours, CellTiter-Glo; read-out: GI50
Method: (§1) The following types of cells were prepared for this experiment: (i) a T-Rex 293 cell line having increased expression of androgen receptor protein due to exposure to doxycycline and (ii) a T-Rex 293 cell line lacking increased expression of androgen receptor protein. Ability of the test compounds to inhibit proliferation of the foregoing cell types was evaluated according to the procedures set forth below.
(§2) The doxycycline-inducible androgen receptor protein expressing cell line was established using the following protocol: T-Rex 293 cells were purchased from Invitrogen (Cat #R71007) and transfected using Lipofectamine 2000 with the wild-type androgen receptor protein sequence cloned into the pcDNA4/TO vector. Transfected cells were selected using 400 μg/mL Zeocin (Invitrogen Cat #R25001). Following selection, single clones were raised and maintained in Dulbecco's Modified Eagle Medium (DMEM) supplemented with 10% w/w Tetracycline-free fetal bovine serum (FBS) and 250 μg/mL Zeocin. Clones were analyzed for expression of androgen receptor protein in the presence and absence of 10 ng/ml doxycycline (Sigma Cat #D9891), and a single doxycycline-inducible clone (hereinafter “SC3”) was selected for use in downstream assays.
(§3) The SC3 cells were seeded on poly-D-lysine coated, black clear-bottom 384-well plates at 2500/well, in 25 μL Phenol Red Free Dulbecco's Modified Eagle Medium (DMEM) supplemented with 10% w/w charcoal-dextran treated fetal bovine serum (FBS) and 1% w/w pen-strep, with or without 10 ng/mL doxycycline. Pen-Strep is a commercially available mixture of penicillin G and streptomycin, which is used in mammalian cell culture media to prevent bacterial contamination. Phenol Red Free Dulbecco's Modified Eagle Medium (DMEM) supplemented with 10% w/w charcoal-dextran treated fetal bovine serum (FBS) and 1% w/w pen-strep, with or without 10 ng/mL doxycycline is herein referred to as Treatment Medium. Following seeding of cells in the plates, the plates were spun at 300×g for 30 seconds, then equilibrated to room temperature for 30 minutes, and then deposited in a humidified tissue culture incubator maintained at 37° C. with 5% CO2.
(§4) At 24 hours after seeding of the cells, dilutions of test compound were prepared in DMSO and dissolved in Treatment Medium, to achieve a final DMSO concentration of 0.5% w/w, thereby providing the Test Compound Solution. A 25 μL aliquot of the Test Compound Solution was added to cells in the well plates. An equal volume of a solution containing DMSO and Treatment Medium was used as a negative control. Following treatment of cells with Test Compound Solution or said equal volume of a solution containing DMSO and Treatment Medium, the plates were spun at 300×g for 30 seconds, and then left in an incubator for 72 hours.
(§5) At the end of the treatment duration, cell viability was quantified with CellTiter-Glo 2.0 reagent (Promega Cat #G9243). For this purpose, plates were equilibrated to room temperature for 30 minutes, and then 25 μL of CellTiter-Glo 2.0 reagent was added to cells in the plate wells. Plates were then agitated on a shaker for two minutes at 500 rpm and subsequently incubated at room temperature for 10 minutes. Following incubation, the plates were spun at 3000×g for 30 seconds, then sealed with an optical adhesive cover, and luminescence readings were measured with an EnVision Plate Reader.
(§6) Data was normalized using zero luminescence for baseline. A four-parameter non-linear regression curve fit was applied to dose-response data in GraphPad Prism data analysis software to determine the half-maximal growth inhibitory concentration (GI50) for each test compound.

[2] = test system: T-Rex 293 cell line SC3 cells lacking increased expression of androgen receptor protein; test: Cellular growth inhibition, T-Rex 293 SC3 cells lacking increased androgen receptor expression (no doxycycline), CellTiter-Glo; assay type: cell-based; conditions: T-Rex 293 SC3 cells lacking increased androgen receptor expression (not exposed to doxycycline), 72 hours, CellTiter-Glo; read-out: GI50
Method: as §1, §2, §3, §4, §5, §6

T47D cells = test: Cellular growth inhibition assay for T47D cells, CellTiter-Glo; assay type: cell-based, human; conditions: 72 hours treatment, CellTiter-Glo 2.0
Method: (§7) T47D cells were purchased from American Type Cell Culture (ATCC Cat #HTB-133) and then seeded on poly-D-lysine coated, black clear-bottom 384-well plates at 3000/well in 25 μL Dulbecco's Modified Eagle Medium (DMEM) supplemented with 10% w/w Fetal bovine serum (FBS), 0.2 units/mL recombinant human insulin (Gibco Cat #12585014), and 1% w/w Pen-Strep. Pen-Strep is a commercially available mixture of penicillin G and streptomycin, which is used in mammalian cell culture media to prevent bacterial contamination. Dulbecco's Modified Eagle Medium (DMEM) supplemented with 10% w/w fetal bovine serum (FBS), 0.2 units/mL recombinant human insulin, and 1% w/w Pen-Strep is herein referred to as Treatment Medium. Following seeding of cells in the plates, the plates were spun at 300×g for 30 seconds, then equilibrated to room temperature for 30 minutes, and then deposited in a humidified tissue culture incubator maintained at 37° C. with 5% CO2.
as §4
as §5, with “Reader (Perkin Elmer).” for “Reader.”
as §6

VCaP cells = test: Cellular growth inhibition assay for VCaP cells, CellTiter-Glo; assay type: cell-based, human; conditions: VCaP cells, 72 hours, CellTiter-Glo, read-out: GI50
Method: as §7, with “VCaP” for “T47D”, “#CRL2876)” for “#HTB-133)”, “5000/well” for “3000/well”, “(FBS)” for “(FBS), 0.2 units/mL recombinant human insulin (Gibco Cat #12585014),”, “(FBS)” for “(FBS), 0.2 units/mL recombinant human insulin,”
as §4, §5, §6

Compound | GI50 (T47D cells) | GI50 (VCaP cells) | GI50 (T47D cells; Homo sapiens) | GI50 (VCaP cells; Homo sapiens) | GI50 [1] | GI50 [2]
Cn1cc(-c2cc(C(C)(C)O)ccc2Oc2ccc(C3CC(N4CCN(c5ccc(C(=O)N[C@H]6CC[C@H](Oc7ccc(C#N)c(Cl)c7)CC6)nn5)CC4)C3)cc2)c2cc[nH]c2c1=O (stereo partly shown) [I-136] | < 500 nM | < 500 nM | – | – | < 500 nM | < 500 nM
Cn1cc(-c2cc(C3CCCS3(=O)=O)ccc2Oc2ccc(CCC3CCN(c4ccc(C(=O)NC5CCC(Oc6ccc(C#N)c(Cl)c6)CC5)nn4)CC3)cc2)c2cc[nH]c2c1=O (stereo not shown) [I-252, N-[4-(3-chloro-4-cyano-phenoxy)cyclohexyl]-6-[4-[2-[4-[4-(1,1-dioxothiolan-2-yl)-2-(6-methyl-7-oxo-1Hpyrrolo[2,3-c]pyridin-4-yl)phenoxy]phenyl]ethyl]-1-piperidyl]pyridazine-3-carboxamide] | – | – | 500 to 1500 nM | < 500 nM | < 500 nM | > 3000 nM
CCS(=O)(=O)c1ccc(Oc2ccc(CCC3CN(c4ccc(C(=O)N[C@H]5CC[C@H](Oc6ccc(C#N)c(Cl)c6)CC5)nn4)C3)cc2)c(-c2cn(C)c(=O)c3[nH]ccc23)c1 [I-72] | < 500 nM | < 500 nM | – | – | < 500 nM | < 500 nM
CCS(=O)(=O)c1ccc(OC2CC(OC3CC4(CCN(c5ccc(C(=O)N[C@H]6CC[C@H](Oc7ccc(C#N)c(Cl)c7)CC6)nn5)CC4)C3)C2)c(-c2cn(C)c(=O)c3[nH]ccc23)c1 (stereo partly shown) [I-229] | < 500 nM | < 500 nM | – | – | < 500 nM | < 500 nM
CCS(=O)(=O)c1ccc(Oc2ccc(CC3CC4(C3)CN(c3ccc(C(=O)N[C@H]5CC[C@H](Oc6ccc(C#N)c(Cl)c6)CC5)nn3)C4)cc2)c(-c2cn(C)c(=O)c3[nH]ccc23)c1 [I-69] | – | – | < 500 nM | < 500 nM | < 500 nM | < 500 nM
CCS(=O)(=O)Nc1ccc(Oc2cccc(N3CC(N4CCN(c5ccc(C(=O)N[C@H]6CC[C@H](Oc7ccc(C#N)c(Cl)c7)CC6)nn5)CC4)C3)c2F)c(-c2cn(C)c(=O)c3[nH]ccc23)c1 [I-12] | – | – | < 500 nM | < 500 nM | < 500 nM | > 3000 nM
CN(CCCCc1ccc(Oc2ccc(C(C)(C)O)cc2-c2cn(C)c(=O)c3[nH]ccc23)cc1)c1ccc(C(=O)N[C@H]2CC[C@H](Oc3ccc(C#N)c(Cl)c3)CC2)nn1 [I-122] | < 500 nM | < 500 nM | – | – | – | –
Cn1cc(-c2cc(NC(=O)CCC3CCN(c4ccc(C(=O)NC5CCC(Oc6ccc(C#N)c(Cl)c6)CC5)nn4)CC3)ccc2Oc2ccc(F)cc2F)c2cc[nH]c2c1=O (stereo not shown) [I-212, N-[4-(3-chloro-4-cyano-phenoxy)cyclohexyl]-6-[4-[3-[4-(2,4-difluorophenoxy)-3-(6-methyl-7-oxo-1H-pyrrolo[2,3-c]pyridin-4-yl)anilino]-3-oxo-propyl]-1-piperidyl]pyridazine-3-carboxamide] | – | – | – | > 3000 nM | < 500 nM | > 3000 nM
CCS(=O)(=O)Nc1ccc(Oc2cccc(OCCOC3CCN(c4ncc(C(=O)N[C@H]5CC[C@H](Oc6ccc(C#N)c(Cl)c6)CC5)cn4)CC3)c2)c(-c2cn(C)c(=O)c3[nH]ccc23)c1 [I-5, N-[4-(3-chloro-4-cyano-phenoxy)cyclohexyl]-2-[4-[2-[3-[4-(ethylsulfonylamino)-2-(6-methyl-7-oxo-1H-pyrrolo[2,3-c]pyridin-4-yl)phenoxy]phenoxy]ethoxy]-1-piperidyl]pyrimidine-5-carboxamide] | – | – | – | < 500 nM | < 500 nM | 500 to 1500 nM

Further lines, with some results ahead:

GI50 (T47D cells) | GI50 (VCaP cells) | GI50 (T47D cells; Homo sapiens) | GI50 (VCaP cells; Homo sapiens) | Compound | GI50 [1] | GI50 [2]
< 500 nM | < 500 nM | – | – | CCS(=O)(=O)c1ccc(Oc2ccc(C3CC4(CCN(c5ccc(C(=O)N[C@H]6CC[C@H](Oc7ccc(C#N)c(Cl)c7)CC6)nn5)CC4)C3)cc2)c(-c2cn(C)c(=O)c3[nH]ccc23)c1 [I-60] | < 500 nM | < 500 nM
< 500 nM | < 500 nM | – | – | CCS(=O)(=O)c1ccc(Oc2ccc(CCC3CCN(c4ccc(C(=O)N[C@H]5CC[C@H](Oc6ccc(C#N)c(Cl)c6)CC5)nn4)CC3)c(Cl)c2)c(-c2cn(C)c(=O)c3[nH]ccc23)c1 [I-84] | < 500 nM | > 3000 nM
< 500 nM | < 500 nM | – | – | Cn1cc(-c2cc(C(C)(C)O)ccc2Oc2ccc(CCCC3CN(c4ccc(C(=O)N[C@H]5CC[C@H](Oc6ccc(C#N)c(Cl)c6)CC5)nn4)C3)cc2)c2cc[nH]c2c1=O [I-127] | < 500 nM | 500 to 1500 nM
– | – | < 500 nM | < 500 nM | CCS(=O)(=O)c1ccc(Oc2ccc(CN3CCC4(CCN(c5ccc(C(=O)N[C@H]6CC[C@H](Oc7ccc(C#N)c(Cl)c7)CC6)nn5)C4)C3)c(F)c2)c(-c2cn(C)c(=O)c3[nH]ccc23)c1 (stereo partly shown) [I-75] | < 500 nM | < 500 nM
< 500 nM | < 500 nM | – | – | Cn1cc(-c2cc(C(C)(C)O)ccc2Oc2ccc(CCCC3C4CN(c5ccc(C(=O)N[C@H]6CC[C@H](Oc7ccc(C#N)c(Cl)c7)CC6)nn5)CC34)cc2)c2cc[nH]c2c1=O (stereo partly shown) [I-128] | < 500 nM | < 500 nM
– | – | < 500 nM | < 500 nM | Cn1cc(-c2cc(C(C)(C)O)ccc2Oc2ccc(N3CC(OC4CCN(c5ccc(C(=O)N[C@H]6CC[C@H](Oc7ccc(C#N)c(Cl)c7)CC6)nn5)CC4)C3)cc2)c2cc[nH]c2c1=O [I-146] | < 500 nM | < 500 nM
– | – | < 500 nM | < 500 nM | Cn1cc(-c2cc(C(C)(C)O)ccc2Oc2ccc(CCCC3CCN(c4ccc(C(=O)N[C@H]5CC[C@H](Oc6ccc(C#N)c(Cl)c6)CC5)nn4)CC3)cc2)c2cc[nH]c2c1=O [I-124] | – | –
– | – | – | < 500 nM | CCS(=O)(=O)Nc1ccc(Oc2cccc(OCCOC3CCN(c4cnc(C(=O)N[C@H]5CC[C@H](Oc6ccc(C#N)c(Cl)c6)CC5)cn4)CC3)c2F)c(-c2cn(C)c(=O)c3[nH]ccc23)c1 [I-31] | < 500 nM | < 500 nM
